Results as given in patent EP0007294A2, “Membrane stabilizing compounds having beta-receptor blocking activity, their preparation, method for treatment of arrhythmic conditions, and pharmaceutical preparations containing same” (priority 1978, dated 1980).
Like-named read-outs stand apart in the source and are kept apart here.

Legend:
[1] = Conscious dogs with ligation of a coronary artery according to Harris: ectopics and convulsions; format: in vivo; details: in vivo
Excerpt: (§1) Male beagle dogs, 7-13 kg, undergo two days prior to the test a surgical ligation of a coronary artery. On the day of the test the conscious dog is secured in a canvas sling in a standing position and given increasing doses of the test compounds by intravenous administration. ECG, blood pressure etc are monitored and attention is paid to all CNS-effects. The dogs have almost 100 percent of ectopics prior to administration of the compound to be tested. Effects of the test drug on the frequency of ectopics are calculated from ECG. The accumulative end doses giving 50% and 90% reduction of ectopics as well as the ED50 values which give convulsions (side-effect) are measured and given below in Table 3. The value for convulsions is a mean value for 3-5 dogs.
(§2) x) The value given is the final value in a series of doses 0.5 + 1 + 2 + 4 + 8 mg/kg i.v. giving 50% reduction of ectopics. 30 min interval between doses.
(§3) Table 3: Antiarrythmic effect and CNS-effects of four β-receptor blockers, a membrane stabilizer, and ten new compounds with combined β-blocking and membrane stabilizing effect.

ectopics = test: as above; format: in vivo; details: for ED50 / ED90: Canis lupus familiaris; for ED50: read-out: Conscious dog Harris ligation Ectopics -50%; for ED90: read-out: Conscious dog Harris ligation Ectopics -90%
Excerpt: as §1, §2, §3

[2] = Alternative chloroform test on mice: ventricular tachycardia inhibition and ataxia; format: in vivo; details: mouse, in vivo
Description: (§4) In an alternative chloroform test on mice the ventricular tachycardia inhibition by the test compounds are observed. Thereby the test solution is given subcutaneous and the animal is observed for CNS-effects for 20 min. The mouse is put into a chamber with chloroform until it stops breathing (approx 30 sec.). The animal is then secured on a cork-board and ECG is monitored. If the ventricular rythm is less than 520 beats per min., the animal was protected against ventricular tachycardia. Groups of 10 animals were tested for each dose-level'and the ED50-values have been calculated therefrom. During the test the side-effect ataxia (incordination of movements) is observed.
(§5) In Table 5, as shown, the new compounds tested exerted antiarrhythmic effects also in this te-st.

[3] = tested on: chloroform induced ventricular tachy-cardia; test: as above; format: in vivo; details: for ED50: Mus musculus
Description: as §4, §5

[4] = tested on: ouabain-induced arrhythmias; test: Ouabain-induced arrhythmias in anesthetized guinea-pigs; format: in vivo; details: for A-A EFFECT IN NUMBER OF ANIMALS: animals with antiarrhythmic effect / animals tested; for LOWEST FREQUENCY: frequency of ventricular premature beats after test solution; for ASYSTOLE: time of asystole under continued ouabain; for V-FIB: time of ventricular fibrillation under continued ouabain
Description: Guinea-pigs of either.sex (300-400 g) were anesthetized with urethane 1,4 g/kg i.p. and tracheotomized. ECG, lead II was picked up with needle electrodes and was registered continuously throughout the experiment. Two i.v. catheters were inserted: one for the administration of ouabain, the other for the test solution.
The experimental design for the study of antiarrhythmic activities is schematically shown in the head of Table 2. The arrhythmia was induced by automatic infusion of ouabain, 18 µg/kg/60" every two minutes for twelve minutes and thereafter 9 µg/kg/30" every two minutes throughout the whole experiment and the infusion was not stopped until asystole occurred. As soon as the frequency of ventricular premature beats (VPB) had passed 50 per cent, the test solution was given i.v. (0,2 ml/min) during 2 min. (see head of Table 2).

[5] = tested on: chloroform-induced ventricular arrhythmias; test: Chloroform-induced ventricular arrhythmias (fibrillation) in mice, intraperitoneal dose; details: for Number of Animals Dead / Number of Animals Protected: dose 100 mg/kg intraperitoneal, 10 treated; for Number of Animals Protected: protected against CHCl3-induced ventricular fibrillation; for Number of Animals Convulsive / Number of Animals LRR: mouse, in vivo, ip, 100 mg/kg
Excerpt: Mice were given an intraperitoneal dose of the test compound. Twenty minutes after dose, they were suffocated in chloroform vapor.- When the animals stopped breathing, the chest was opened to inspect for fibrillation. If the heart was not fibrillating, it was prodded.
Signs of CNS toxicity were noted during the 20-minute interval between dosing and challenge.
"Protected" means number of animals protected against CHC13- induced ventricular fibrillation.

[6] = iv., conscious dog, mean value for 3-5 dogs, read-out: ED50 Convulsive
[7] = iv., accumulative end dose giving 50% reduction of ectopics
[8] = iv., accumulative end dose giving 90% reduction of ectopics
[9] = sc., mice, observed for 20 min, read-out: Ataxia ED50
[10] = sc., mice, chloroform, groups of 10 animals per dose-level

COCCc1ccc(OCC(O)CNCCCCc2ccccc2)cc1 (stereo not drawn) [Ex. 11, 3-(4-phenylbutylamino)-1-[4-(2-methoxyethyl)phenoxy]-propanol--2]
TD50 [1, 6]: 8 mg/kg
ED50 (ectopics; [7]): 1 mg/kg
ED90 (ectopics; [8]): 2 mg/kg
TD50 at 20 min [2, 9]: > 50 mg/kg
ED50 [3, 10]: 15 mg/kg

COCCc1ccc(OCC(O)CNCCOc2ccccc2)cc1 (stereo not drawn) [Ex. 13, 3-[2-phenoxyethylamino]-1-[4-(2-methoxyethyl)phenoxy]-propanol--2]
TD50 [1, 6]: 8 mg/kg
ED50 (ectopics; [7]): 4 mg/kg
ED90 (ectopics; [8]): 4 mg/kg
TD50 at 20 min [2, 9]: > 12 mg/kg
ED50 [3, 10]: 3 mg/kg

COCCc1ccc(OCC(O)CNCCc2ccccc2)cc1 (stereo not drawn) [Ex. 14, 3-(2-phenethylamino)-1-[4-(2-methoxyethyl)phenoxy]-propanol-2]
ED50 Convulsive (ectopics; dog, in vivo, iv): 6 to 8 mg/kg
Conscious dog Harris ligation Ectopics -50% (ectopics; [7]): 1 mg/kg
Conscious dog Harris ligation Ectopics -90% (ectopics; [8]): 2 mg/kg
Ataxia ED50 ([3]; mouse, in vivo, sc, 20 min): 40 mg/kg
Ventricular tachy-cardia inhibition ED50 [3, 10]: 10 mg/kg

COCCc1ccc(OCC(O)CNCCCCc2ccc(OC)c(OC)c2)cc1 (stereo not drawn) [Ex. 15]
TD50 ([1]; dog, iv): 6 mg/kg
ED50 (ectopics; [7]): 1 mg/kg
ED90 (ectopics; [8]): 4 mg/kg
TD50 at 20 min ([2]; sc): > 6.3 mg/kg
ED50 [3, 10]: 1.2 mg/kg

CCN(CC)CC(=O)Nc1c(C)cccc1C [Lidocaine]
A-A EFFECT IN NUMBER OF ANIMALS ([4]; dose 4.0 mg/kg i.v.): 5/5
A-A EFFECT IN NUMBER OF ANIMALS ([4]; dose 12.0 mg/kg i.v.): 5/6
LOWEST FREQUENCY ([4]; dose 4.0 mg/kg i.v.): 10±1%
LOWEST FREQUENCY ([4]; dose 12.0 mg/kg i.v.): 5±3%
ASYSTOLE ([4]; dose 4.0 mg/kg i.v.): 21 ± 1 min
ASYSTOLE ([4]; dose 12.0 mg/kg i.v.): 30 ± 3 min
V-FIB ([4]; dose 4.0 mg/kg i.v.): 15 ± 2 min
V-FIB ([4]; dose 12.0 mg/kg i.v.): 22 ± 3 min
Number of Animals Dead [5]: 0
Number of Animals Protected [5]: 5
Number of Animals Convulsive [5]: 10
Number of Animals LRR [5]: 10

COCCc1ccc(OCC(O)CNC(C)C)cc1 (stereo not drawn) [Metoprolol]
A-A EFFECT IN NUMBER OF ANIMALS ([4]; dose 0.03 mg/kg i.v.): 6/6
A-A EFFECT IN NUMBER OF ANIMALS ([4]; dose 0.1 mg/kg i.v.): 6/6
A-A EFFECT IN NUMBER OF ANIMALS ([4]; dose 0.3 mg/kg i.v.): 6/6
LOWEST FREQUENCY ([4]; dose 0.03 mg/kg i.v.): 34±5%
LOWEST FREQUENCY ([4]; dose 0.1 mg/kg i.v.): 16±7%
LOWEST FREQUENCY ([4]; dose 0.3 mg/kg i.v.): 1±1%
ASYSTOLE ([4]; dose 0.03 mg/kg i.v.): 35 ± 4 min
ASYSTOLE ([4]; dose 0.1 mg/kg i.v.): 38 ± 5 min
ASYSTOLE ([4]; dose 0.3 mg/kg i.v.): 48 ± 6 min
V-FIB ([4]; dose 0.03 mg/kg i.v.): 25 ± 3 min
V-FIB ([4]; dose 0.1 mg/kg i.v.): 32 ± 5 min
V-FIB ([4]; dose 0.3 mg/kg i.v.): 37 ± 3 min
TD50 ([1]; dog, iv): > 8 mg/kg
ED50 (ectopics; [7]): 4 mg/kg
ED90 (ectopics; [8]): 8 mg/kg
TD50 at 20 min ([2]; sc): > 50 mg/kg
ED50 [3, 10]: 2.6 mg/kg

COC(=O)NCCc1ccc(OCC(O)CNC(C)C)cc1 (stereo not drawn) [Pamatolol]
Number of Animals Dead [5]: 0
Number of Animals Protected [5]: 5
Number of Animals Convulsive [5]: 0
Number of Animals LRR [5]: 0

CC(=O)Nc1ccc(OCC(O)CNC(C)C)cc1 (stereo not drawn) [Practolol, reference compound]
TD50 [1, 6]: > 16 mg/kg
ED50 (ectopics; [7]): > 16 mg/kg
ED90 (ectopics; [8]): > 16 mg/kg
TD50 at 20 min [2, 9]: > 50 mg/kg
ED50 [3, 10]: 2 mg/kg

Cc1cccc(C)c1NC(=O)C(C)N (stereo not drawn) [Tocainide, reference compound]
TD50 ([1]; dog, iv): > 8 mg/kg
ED50 (ectopics; [7]): 4 mg/kg
ED90 (ectopics; [8]): 8 mg/kg
TD50 at 20 min ([2]; sc): 130 mg/kg
ED50 [3, 10]: 90 mg/kg
